Experimental data taken from article PMC10507793, “Discovery and computational studies of piperidine/piperazine-based compounds endowed with sigma receptor affinity” (RSC Medicinal Chemistry, 2023).
“Also recorded” adds a separate entry of the source.

Key:
S2R = molecular target: T1, S2R (Rattus norvegicus, UniProt Q5U3Y7); assay: S2R radioligand binding assay with [3H]DTG; settings: for Ki: read-out: Ki ± SD S2R, rat liver homogenates, [3H]DTG, (+)-pentazocine as S1R masking agent, mean ± SD of at least two experiments in duplicate; for binding to S2R (in words): radioligand binding
T1 sequence (Q5U3Y7 1-176): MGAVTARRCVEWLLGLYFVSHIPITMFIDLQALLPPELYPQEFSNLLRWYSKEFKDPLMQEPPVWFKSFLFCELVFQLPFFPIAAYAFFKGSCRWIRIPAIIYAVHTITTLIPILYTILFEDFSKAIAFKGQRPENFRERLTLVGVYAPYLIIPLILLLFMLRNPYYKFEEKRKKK

S1R [1] = molecular target: T2, S1R (Rattus norvegicus, UniProt Q9R0C9); assay: S1R radioligand binding assay with [3H](+)-pentazocine; settings: for Ki: read-out: Ki ± SD S1R, rat liver homogenates, [3H](+)pentazocine, mean ± SD of at least two experiments in duplicate; for KiS2R/KiS1R ratio: selectivity over S2R; for binding to S1R (in words): radioligand binding
S1R [2] = molecular target: T2, S1R; assay: S1R functional assay (phenytoin method, [3H](+)-pentazocine displacement); assay type: binding; design: liver homogenates from male Sprague Dawley rats; from tissue; host or cells: rat liver homogenate (male Sprague Dawley); settings: rat liver; for ratio of Ki without phenytoin/with phenytoin: agonist if ratio >1, antagonist if ≤1
Method: Phenytoin is an allosteric modulator for the S1R, and it differentially modulates the affinity of S1R ligands on the basis of their agonist or antagonist profile.[22,23]
The experiments were performed one time in the presence of phenytoin and one time without phenytoin. […] The incubation of samples lasts 120 min at 37 °C. Unlabeled (+)-pentazocine (10 μM) was used to measure non-specific binding.
GraphPad Prism® 7.0 (GraphPad Software, San Diego, CA, USA) program was used to calculate the Ki values that are given as mean value ± SD from at least two independent experiments performed in duplicate.

S1R [3] = settings: co-crystallized ligand; no reference given; read-out: KiS1R; cited from earlier work

T2 sequence (Q9R0C9 whole entry): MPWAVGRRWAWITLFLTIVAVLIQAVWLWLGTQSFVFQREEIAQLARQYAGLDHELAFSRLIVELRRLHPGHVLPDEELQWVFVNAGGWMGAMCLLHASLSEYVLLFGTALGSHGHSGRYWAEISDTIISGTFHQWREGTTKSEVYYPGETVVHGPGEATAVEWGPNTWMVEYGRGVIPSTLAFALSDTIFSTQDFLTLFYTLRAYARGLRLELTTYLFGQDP

Compound	Ki (S2R) [nM]	Ki (S1R [1]) [nM]	further results
O=C(c1cc2ccccc2o1)N1CCN(Cc2ccc(F)cc2)CC1 [Compound 7]	> 10000	132 ± 27	–
O=C(C(c1ccccc1)c1ccccc1)N1CCN(Cc2ccc(F)cc2)CC1 [Compound 11]	> 10000	390 ± 77	–
O=C(c1ccc([N+](=O)[O-])s1)N1CCN(Cc2ccc(F)cc2)CC1 [Compound 9]	> 10000	309 ± 55	–
O=C(CCN1CCC(Cc2ccccc2)CC1)N1CCN(c2ccc(O)cc2)CC1 [Compound 4]	1000 ± 203	328 ± 58	–
Cc1ccc(C(=O)N2CCN(Cc3ccc(F)cc3)CC2)o1 [Compound 8]	> 10000	214 ± 29	–
C=CCN1CC[C@]2(C)c3cc(O)ccc3C[C@H]1[C@H]2C [SKF-10 047, reference compound]	–	–	ratio of Ki without phenytoin/with phenytoin (S1R [2]): 3.2
O=C(CN1CCC(Cc2ccccc2)CC1)N1CCN(c2ccc(O)cc2)CC1 [Compound 2]	1200 ± 226	24 ± 5	KiS2R/KiS1R ratio (S1R [1]): 50
O=C(c1cc2ccccc2s1)N1CCN(Cc2ccc(F)cc2)CC1 [Compound 6]	> 10000	82 ± 18	–
O=C(CCN1CCC(Cc2ccc(F)cc2)CC1)N1CCN(c2ccc(O)cc2)CC1 [Compound 5]	610 ± 146	434 ± 47	–
O=C(c1ccc(-c2ccccc2)cc1)N1CCN(c2ccc(O)cc2)CC1 [Compound 13]	> 10000	> 10000	binding to S2R (in words) (S2R): failed to bind; also recorded: did not bind; binding to S1R (in words) (S1R [1]): failed to bind; also recorded: did not bind
O=C(NC1CCN(Cc2ccccc2)CC1)c1ccc(I)cc1 [4-IBP]	–	–	Ki (S1R [3]): 1.7 nM
O=C(Cc1ccccc1Br)N1CCN(Cc2ccc(F)cc2)CC1 [Compound 10]	> 10000	366 ± 80	–
O=C(CCN1CCC(Cc2ccccc2)CC1)N1CCN(c2ccccc2)CC1 [Compound 3]	234 ± 43	8.9 ± 1.3	KiS2R/KiS1R ratio (S1R [1]): 26
O=C(c1ccccc1)N1CCN(c2ccc(O)cc2)CC1 [Compound 12]	> 10000	> 10000	binding to S2R (in words) (S2R): failed to bind; also recorded: did not bind; binding to S1R (in words) (S1R [1]): failed to bind; also recorded: did not bind
O=C(CN1CCC(Cc2ccccc2)CC1)N1CCN(c2ccccc2)CC1 [Compound 1, 2-[4-(benzyl)-1-piperidin-1-yl]-1-4-(4-phenylpiperazin-1-yl)ethanone]	104 ± 15	3.2 ± 0.7	S1R functional profile (S1R [2]; phenytoin assay): S1R agonist; ratio of Ki without phenytoin/with phenytoin (S1R [2]): 1.8; KiS2R/KiS1R ratio (S1R [1]): 33
